Results on ten compounds are retold here after patent US20250122211A1, “NITROGEN-CONTAINING TETRACYCLIC COMPOUND, PREPARATION METHOD THEREFOR, AND MEDICAL USE THEREOF” (Jiangsu Hengrui Pharmaceuticals Co., Ltd., priority 2021, published 2025).

What all share (assay type): cell-based
For experiment [1], the system named is ERK phosphorylation in H358 cells. Briefly: H358 cell ERK phosphorylation inhibition assay (HTRF pERK/total ERK). The following applies: 3 h incubation, ratio of pERK/total ERK, read-out: IC50 (nM), inhibitory effects on ERK phosphorylation in H358 cells. As to the method: The inhibitory effects of the compounds of the present disclosure on ERK phosphorylation in H358 cells were measured. Below is a brief description of the experimental method: H358 cells (ATCC, CRL-5807) were cultured in RPMI1640 medium (Hyclone, SH30809.01) containing 10% fetal bovine serum (Corning, 35-076-CV) (i.e., complete medium). On the first day of the experiment, H358 cells were seeded into a 96-well plate at a density of 25,000 cells/well using complete medium, with 190 μL of cell suspension per well, and the plate was incubated overnight in a 37° C., 5% CO2 cell incubator. On the second day, the test compounds, prepared in complete medium and serially diluted, were added at 10 μL/well. The final concentrations of the compounds were 9 concentration points obtained by a 6-fold serial dilution from 10 μM. A blank control containing 0.5% DMSO was set up. The plate was incubated for 3 h in a 37° C., 5% CO2 cell incubator. After 3 h, the 96-well cell culture plate was removed from the incubator, and the culture medium was pipetted off. PBS (Shanghai BasalMedia Technologies Co., Ltd., B320) was added at 200 μL/well for a single wash. PBS was pipetted off, and lysis buffer (Cisbio, 64KL1FDF) containing a blocking agent (Cisbio, 64KB1AAC) was added at 50 μL/well. The plate was incubated on a shaker for 30 min at room temperature to lyse the cells. After lysis, the lysates were well mixed by pipetting, and 16 μL of lysate was transferred from each well to two HTRF 96-well assay plates (Cisbio, 66PL96100). Subsequently, 4 μL of a premixed phospho-ERK1/2 antibody solution (Cisbio, 64AERPEG) or 4 μL of a premixed total-ERK1/2 antibody solution (Cisbio, 64NRKPEG) was added to each of the plates. The plates were sealed with a plate sealer film, centrifuged for 1 min in a microplate centrifuge, and incubated overnight at room temperature in the dark. On the third day, fluorescence values at an excitation wavelength of 337 nm and emission wavelengths of 665 nm and 620 nm were measured using a PHERAstar multifunctional microplate reader (BMG Labtech, PHERAstar FS). The IC50 values for the inhibitory activity of the compounds were calculated using Graphpad Prism software, based on the compound concentration and the ratio of pERK/total ERK.

Another experiment deals with H358 cells. Put plainly: H358 proliferation assay (CellTiter-Glo). The following applies: 120 h incubation, read-out: IC50 (nM), inhibitory activity against H358 cell proliferation. The method, then:
The inhibitory activity of the compounds of the present disclosure against H358 cell proliferation was measured. Below is a brief description of the experimental method: H358 cells (ATCC, CRL-5807) were cultured in RPMI1640 medium (Hyclone, SH30809.01) containing 10% fetal bovine serum (Corning, 35-076-CV) (i.e., complete medium). On the first day of the experiment, H358 cells were seeded into a 96-well plate at a density of 1200 cells/well using complete medium, with 100 μL of cell suspension per well, and the plate was incubated overnight in a 37° C., 5% CO2 cell incubator. On the second day, the test compounds, prepared in complete medium and serially diluted, were added at 10 μL/well. The final concentrations of the compounds were 9 concentration points obtained by a 5-fold serial dilution from 10 μM. A blank control containing 0.5% DMSO was set up. The plate was incubated for 120 h in a 37° C., 5% CO2 cell incubator. On the seventh day, the 96-well cell plate was removed from the incubator, and CellTiter-Glo® Luminescent Cell Viability Assay (Promega, G7573) was added at 50 μL/well. After 10 min of room temperature incubation, luminescence signals were measured using a multifunctional microplate reader (PerkinElmer, EnVision® 2105). The IC50 values for the inhibitory activity of the compounds were calculated using Graphpad Prism software.

The next experiment deals with MIA PaCa-2 cells. Put plainly: MIA PaCa-2 cell proliferation assay (CellTiter-Glo). As to conditions: 72 h incubation, read-out: IC50 (nM), inhibitory activity against MIA PaCa-2 cell proliferation. The method, then:
The inhibitory activity of the compounds of the present disclosure against MIA PaCa-2 cell proliferation was measured. Below is a brief description of the experimental method:
MIA PaCa-2 cells (ATCC, CRL-1420) were cultured in DMEM/HIGH GLUCOSE medium (GE, SH30243.01) containing 10% fetal bovine serum (Corning, 35-076-CV) and 2.5% horse serum (Beyotime Biological Tech., C0262) (i.e., complete medium). On the first day of the experiment, MIA PaCa-2 cells were seeded into a 96-well plate at a density of 500 cells/well using complete medium, with 90 µL of cell suspension per well, and the plate was incubated overnight in a 37° C., 5% CO2 cell incubator. On the second day, the test compounds, prepared in complete medium and serially diluted, were added at 10 μL/well. The final concentrations of the compounds were 9 concentration points obtained by a 5-fold serial dilution from 10 μM. A blank control containing 0.5% DMSO was set up. The plate was incubated for 72 h in a 37° C., 5% CO2 cell incubator. On the fifth day, the 96-well cell plate was removed from the incubator, and CellTiter-Glo® Luminescent Cell Viability Assay (Promega, G7573) was added at 50 μL/well. After 10 min of room temperature incubation, luminescence signals were measured using a multifunctional microplate reader (PerkinElmer, EnVision2015). The IC50 values for the inhibitory activity of the compounds were calculated using Graphpad Prism software.

Where two headings read alike, the source gives them in different places.

For the compound `C=C(F)C(=O)N1CCN2C(=O)c3cc(F)c(-c4ccc(F)c5sc(N)c(C#N)c45)c4c(Cl)nn(c34)CC[C@H]2C1` (atropisomer, axis not shown) [Example 17-P2, (S)-2-Amino-4-((S)-4-chloro-2-fluoro-10-(2-fluoroacryloyl)-14-oxo-8,8a,9,10,11,12-hexahydro-7H,14H-pyrazino[1′,2′:5,6][1,5]diazocino[3,2,1-hi]indazol-3-yl)-7-fluorobenzo[b]thiophene-3-carbonitrile], the IC50 in experiment [1] (Homo sapiens, NCI-H358, 3 h) was determined as 2 nM; with H358 cells (Homo sapiens, NCI-H358, 120 h), 1.87 nM; in the experiment on MIA PaCa-2 cells (Homo sapiens, MIA PaCa-2, 72 h), 1.88 nM.
The matching figures for `C=CC(=O)N1CCN2C(=O)c3cc(F)c(-c4ccc(F)c5sc(N)c(C#N)c45)c4c(F)cn(c34)CC[C@H]2C1` (atropisomer, axis not shown) [Example 13-P2, (S)-4-((S)-10-Acryloyl-2,4-difluoro-14-oxo-8,8a,9,10,11,12-hexahydro-7H,14H-pyrazino[1′,2′:5.6][1,5]diazocino[3,2,1-hi]indol-3-yl)-2-amino-7-fluorobenzo[b]thiophene-3-carbonitrile]: 0.76 nM, 11.4 nM and 20.5 nM.
On to `C=C(F)C(=O)N1CCN2C(=O)c3cc(F)c(-c4ccc(F)c5sc(N)c(C#N)c45)c4cnn(c34)CC[C@H]2C1` (atropisomer, axis not shown) [Example 6-P1, (R)-2-Amino-7-fluoro-4-((S)-2-fluoro-10-(2-fluoroacryloyl)-14-oxo-8,8a,9,10,11,12-hexahydro-7H,14H-pyrazino[1′,2′:5,6][1,5]diazocino[3,2,1-hi]indazol-3-yl)benzo[b]thiophene-3-carbonitrile], for which the IC50 turned out to be 1.45 nM in experiment [1], 9.75 nM in the experiment on H358 cells and 13.9 nM in the experiment with MIA PaCa-2 cells.
In the case of `C=C(F)C(=O)N1CCN2C(=O)c3cc(F)c(-c4ccc(F)c5sc(N)c(C#N)c45)c4c(F)nn(c34)CC[C@H]2C1` (atropisomer, axis not shown) [Example 16-P2, (S)-2-Amino-4-((S)-2,4-difluoro-10-(2-fluoroacryloyl)-14-oxo-8,8a,9,10,11,12-hexahydro-7H,14H-pyrazino[1′,2′:5,6][1,5]diazocino[3,2,1-hi]indazol-3-yl)-7-fluorobenzo[b]thiophene-3-carbonitrile], the IC50 was found to be 1.06 nM in experiment [1] (Homo sapiens, NCI-H358, 3 h); 8 nM in the experiment with H358 cells (Homo sapiens, NCI-H358, 120 h); 4.56 nM in the experiment on MIA PaCa-2 cells (Homo sapiens, MIA PaCa-2, 72 h).
The like results for `C=CC(=O)N1CCN2C(=O)c3cc(F)c(-c4ccc(F)c5sc(N)c(C#N)c45)c4c(Cl)cn(c34)CC[C@H]2C1` (atropisomer, axis not shown) [Example 19-P2, (S)-4-((S)-10-Acryloyl-4-chloro-2-fluoro-14-oxo-8,8a,9,10,11,12-hexahydro-7H,14H-pyrazino[1′,2′:5,6][1,5]diazocino[3,2,1-hi]indol-3-yl)-2-amino-7-fluorobenzo[b]thiophene-3-carbonitrile] were, in that order, 0.97 nM, 5.65 nM and 4.9 nM.
Take `C=C(F)C(=O)N1CCN2C(=O)c3cc(F)c(-c4ccc(F)c5sc(N)c(C#N)c45)c4c(C)nn(c34)CC[C@H]2C1` (atropisomer, axis not shown) [Example 15-P2, (S)-2-Amino-7-fluoro-4-((S)-2-fluoro-10-(2-fluoroacryloyl)-4-methyl-14-oxo-8,8a,9,10,11,12-hexahydro-7H,14H-pyrazino[1′,2′:5,6][1,5]diazocino[3,2,1-hi]indazol-3-yl)benzo[b]thiophene-3-carbonitrile]: the results for the IC50 (in experiment [1]; in the experiment with H358 cells; in the experiment with MIA PaCa-2 cells) were 3.94 nM, 4.21 nM and 7.75 nM, respectively.
For the compound `C=C(F)C(=O)N1CCN2C(=O)c3cc(F)c(-c4ccc(F)c5sc(N)c(C#N)c45)c4cnn(c34)CC[C@H]2C1` (atropisomer, axis not shown) [Example 6-P2, (S)-2-Amino-7-fluoro-4-((S)-2-fluoro-10-(2-fluoroacryloyl)-14-oxo-8,8a,9,10,11,12-hexahydro-7H,14H-pyrazino[1′,2′:5,6][1,5]diazocino[3,2,1-hi]indazol-3-yl)benzo[b]thiophene-3-carbonitrile], the IC50 in experiment [1] is 0.35 nM; with H358 cells (Homo sapiens, NCI-H358, 120 h), 5.73 nM; in the experiment on MIA PaCa-2 cells it was 5.39 nM.
Consider `C=CC(=O)N1CCN2C(=O)c3cc(F)c(-c4ccc(F)c5sc(N)c(C#N)c45)c4cnn(c34)CC[C@H]2C1` (atropisomer, axis not shown) [Example 1-P1, (R)-4-((S)-10-Acryloyl-2-fluoro-14-oxo-8,8a,9,10,11,12-hexahydro-7H,14H-pyrazino[1′,2′:5,6][1,5]diazocino[3,2,1-hi]indazol-3-yl)-2-amino-7-fluorobenzo[b]thiophene-3-carbonitrile], for which the IC50 in experiment [1] was 1.33 nM; in the experiment with H358 cells, 12 nM; in the experiment with MIA PaCa-2 cells, 2.79 nM.
The matching figures for `C=CC(=O)N1CCN2C(=O)c3cc(F)c(-c4ccc(F)c5sc(N)c(C#N)c45)c4cnn(c34)CC[C@H]2C1` (atropisomer, axis not shown) [Example 1-P2, (S)-4-((S)-10-Acryloyl-2-fluoro-14-oxo-8,8a,9,10,11,12-hexahydro-7H,14H-pyrazino[1′,2′:5,6][1,5]diazocino[3,2,1-hi]indazol-3-yl)-2-amino-7-fluorobenzo[b]thiophene-3-carbonitrile]: 0.07 nM, 0.93 nM and 0.4 nM.
Regarding `C=CC(=O)N1CCN2C(=O)c3cc(F)c(-c4ccc(F)c5sc(N)c(C#N)c45)c4c(C)nn(c34)CC[C@H]2C1` (atropisomer, axis not shown) [Example 9-P2, (S)-4-((S)-10-Acryloyl-2-fluoro-4-methyl-14-oxo-8,8a,9,10,11,12-hexahydro-7H,14H-pyrazino[1′,2′:5,6][1,5]diazocino[3,2,1-hi]indazol-3-yl)-2-amino-7-fluorobenzo[b]thiophene-3-carbonitrile], the IC50 in experiment [1] came out at 0.06 nM; with H358 cells (Homo sapiens, NCI-H358, 120 h), 0.52 nM; in the experiment with MIA PaCa-2 cells (Homo sapiens, MIA PaCa-2, 72 h), 0.37 nM.
